# Test results: patent US6028109A, “Use of agonists of the peroxisome proliferator activated receptor alpha for treating obesity” (Glaxo Wellcome Inc., priority 1996, dated 2000)
# Legend:
# [1] = biological target: T1, hPPARα (Homo sapiens, UniProt Q07869); experiment: Transient cotransfection assay, GAL4-PPARα chimera in CV-1 cells (human PPARα); assay type: cell-based; settings: transfection assay
# T1 construct: amino acids 174-475 of PPARα; expressed in transfected cells; host or cells: CV-1 cells
# T1 sequence (Q07869 167-468 limits assumed): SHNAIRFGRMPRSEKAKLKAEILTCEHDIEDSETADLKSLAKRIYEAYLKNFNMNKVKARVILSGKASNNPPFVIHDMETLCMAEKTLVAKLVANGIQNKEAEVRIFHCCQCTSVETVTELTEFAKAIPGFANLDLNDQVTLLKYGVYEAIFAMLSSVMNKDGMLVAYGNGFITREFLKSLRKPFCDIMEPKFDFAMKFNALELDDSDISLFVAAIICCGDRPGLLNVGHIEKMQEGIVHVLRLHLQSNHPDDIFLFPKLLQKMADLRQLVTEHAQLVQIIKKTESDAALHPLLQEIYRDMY
# Excerpt: (§1) A transient cotransfection assay was used to screen for PPARα activator activity of compounds of formula (I).
# (§2) As mammalian cell lines contain endogenous nuclear receptors that can complicate interpretation of the results, we used an established chimera system in which the ligand-binding domain of the PPAR-α was fused to the DNA binding domain of the yeast transcription factor GAL4.The GAL4-PPARα chimera was cotransfected into CV-1 cells with a reporter construct containing five copies of the GAL4 binding site upstream of the thymidine kinase promotor driving secreted placental alkaline phosphatase (SPAP) as reporter.
# (§3) GAL4-PPAR chimera and UAS-tk-CAT/SPAP reporters. […]
# (§4) Transfection assay; SPAP reporter. […] 16 h later the medium was exchanged to DME medium supplemented with 10% delipidated fetal calf serum and the test compound at a concentration of 10^-5 M. After incubation for an additional 24 h SPAP activity and β-galactosidase activity were measured as previously described (Pfahl et al., 1990).
# (§5) Transfection assay: CAT reporter. […] After incubation for an additional 24 h, chloramphenicol acetyl transferase (CAT) activity and β-galactosidase activity were measured as previously described (Pfahl et al., 1990). […]
# [2] = biological target: T2, mPPARα (Mus musculus, UniProt P23204); experiment: Transient cotransfection assay, GAL4-PPARα chimera in CV-1 cells (mouse PPARα); assay type: cell-based; settings: transfection assay
# T2 construct: amino acids 174-475 of PPARα; expressed in transfected cells; host or cells: CV-1 cells
# T2 sequence (P23204 167-468 limits assumed): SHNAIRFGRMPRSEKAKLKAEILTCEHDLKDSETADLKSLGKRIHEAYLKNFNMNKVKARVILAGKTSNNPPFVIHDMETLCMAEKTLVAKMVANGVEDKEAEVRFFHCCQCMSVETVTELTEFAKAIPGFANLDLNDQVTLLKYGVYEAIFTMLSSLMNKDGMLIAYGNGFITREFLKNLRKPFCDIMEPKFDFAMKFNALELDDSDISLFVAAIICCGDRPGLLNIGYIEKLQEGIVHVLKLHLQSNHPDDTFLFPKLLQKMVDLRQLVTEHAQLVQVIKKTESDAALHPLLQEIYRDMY
# Excerpt: as §1, §2, §3, §4, §5
# [3] = tested on: GST-PPARα; experiment: Competition binding for PPARα against the radioligand of Example 2; settings: 100 nM radioligand of Example 2, 1000-fold excess (100 microM) of competitor; no competitor 40,200 cpm bound
# Protocol: a) Binding of the radioligand of Example 2 to PPARα The ligand binding domains of mouse and human PPARα were expressed in E. Coli as fusion proteins with glutathione-S-transferase (GST). DNA encoding the ligand binding domain of mouse and human PPARa was amplified via polymerase chain reaction and inserted in-frame into the bacterial expression vector pGEX-2T (Pharmacia). GST-mPPARα and GST-hPPARa fusion proteins were expressed in BL21(DE3)plysS cells. After a 2 hour induction with 1 mM IPTG, the cells were lysed by freeze/thaw in 1/10 volumes of a buffer containing 50 mM Tris (pH 8), 250 mM KCl, 10 mM DTT, 1 mM PMSF, and 1% Triton X-100. Lysates were clarified by centrifugation for 1 hr at 50,000 x g. 1.5 ml of a 50% glutathione-sepharose bead (Pharmacia)/phosphate buffered saline slurry was added to 10 ml of clarified lysate, the mixture incubated for 30 minutes, and the glutathione-sepharose bead-GST-PPARα complexes were then collected by centrifugation and washed twice in binding buffer containing 50 mM KCl, 10 mM Tris (pH 8), 1 mM DTT. The washed glutathione-sepharose bead-PPARα complexes were resuspended in 0.75 ml binding buffer containing 10% glycerol. […]
# [4] = Change of body weight in hamsters on 1% cholesterol chow, 14 days oral dosing; assay type: in vivo, Golden Syrian hamsters; settings: for change of body weight (gained): diet-only control gained 23.2 g; for change of body weight (lost): Compound B Test, diet-only control gained 13 g
# Protocol: Male Golden Syrian hamsters (supplied by Charles River), weighing approximately 140-150 g at the start of the study, were subjected to the following dietary regime. On day 0, four groups of animals (n=6/group) were begun on a diet consisting of rodent chow containing 1% cholesterol. Three of the four groups on the cholesterol diet also began oral dosing with Compound A as described in Example 3 ([…]). Compound A was given as a suspension in 5% bicarbonate and 0.5% methyicellulose. The study was carried out for 14 days.
# The above dietary regime was also carried out with Compound B, but the dosages of Compound B employed were 0.1, 0.5 and 1mglkg/day.
# The changes of body weight observed were as follows: […]
Structure (SMILES),EC50 [1],EC50 [2],cpm bound [3],change of body weight (gained) ([4]; 0.05 mg/kg/day oral),"change of body weight (gained) ([4]; 0.1 mg/kg/day oral, Compound A Test)",change of body weight (gained) ([4]; 0.25 mg/kg/day oral),"change of body weight (gained) ([4]; 0.5 mg/kg/day oral, Compound A Test)",change of body weight (lost) ([4]; 0.5 mg/kg/day oral),change of body weight (lost) ([4]; 1 mg/kg/day oral)
"CCCCCCCN(CCc1ccc(OC(C)(C)C(=O)O)cc1)C(=O)Nc1ccc(F)cc1 [Compound A, 2-(4[2-(3-[4-fluorophenyl]-1-heptylureido)ethyl]-phenoxy)-2-methylpropionicacid]",545 nM,13 nM,"18,300 cpm",20 g,26.2 g,12.6 g,3.4 g,,
"CCCCCCCN(CCc1ccc(OC(C)(C)C(=O)O)cc1)C(=O)Nc1ccc(F)cc1F [Compound B, 2-(4-[2-(3-[2,4-difluorophenyl]-1-heptylureido)ethyl]-phenoxy)-2-methylpropionic acid]",720 nM,25 nM,"13,000 cpm",,,,,12.3 g,12.4 g
